Assay results published in publication PMC11502347 (Frontiers in Microbiology, 2024).

Columns and labels:
[1] = test system: Mtb CF 184 (mono-resistant to isoniazid); format: cell-based, Mycobacterium tuberculosis; conditions: Mono INH clinical isolate; REMA, 7 days
[2] = test system: Mtb CF 44 (mono-resistant to isoniazid); format: cell-based, Mycobacterium tuberculosis; conditions: Mono INH clinical isolate; REMA, 7H9 + 10% OADC, 7 days

NCC[C@H](O)C(=O)N[C@@H]1C[C@H](N)[C@@H](O[C@H]2O[C@H](CN)[C@@H](O)[C@H](O)[C@H]2O)[C@H](O)[C@H]1O[C@H]1O[C@H](CO)[C@@H](O)[C@H](N)[C@H]1O [AMK, amikacin]
CIM90 CF 184 [1]: 0,24 ± 0,00 μM
CIM90 CF 44 [2]: 1,48 ± 1,12 μM

NNC(=O)c1ccncc1 [INH, isoniazid]
CIM90 CF 184 [1]: > 182,30 μM
CIM90 CF 44 [2]: > 182,30 μM

CO[C@H]1/C=C/O[C@@]2(C)Oc3c(C)c(O)c4c(O)c(c(/C=N/N5CCN(C)CC5)c(O)c4c3C2=O)NC(=O)/C(C)=C\C=C\[C@H](C)[C@H](O)[C@@H](C)[C@@H](O)[C@@H](C)[C@H](OC(C)=O)[C@@H]1C [RFP, rifampicin]
CIM90 CF 184 [1]: 0,05 ± 0,01 μM
CIM90 CF 44 [2]: 0,05 ± 0,01 μM

O=C(Nc1ccc(N2CCN(c3ccccn3)CC2)c(F)c1)c1ccc2no[n+]([O-])c2c1 [Compound 5n]
CIM90 CF 184 [1]: 0,96 ± 1,04 μM
CIM90 CF 44 [2]: 4,71 ± 3,11 μM

O=C(Nc1ccc(N2CCSCC2)c(F)c1)c1ccc2no[n+]([O-])c2c1 [Compound 5b]
CIM90 CF 184 [1]: 0,37 ± 0,15 μM
CIM90 CF 44 [2]: 0,52 ± 0,09 μM
